The values that follow are results of earlier work, collected in article PMC6673652 (Nature protocols, 2018).

Read-outs that look alike come from different tables or passages of the source.

The test system of data set [1] is BBB organoids.
Setting [2] is: Cy5.5-labeled peptide, 5 μM, 3 hrs, previously tested.

Turning to `Nc1cc(C(F)(F)F)c(-c2cc(N3CCOCC3)nc(N3CCOCC3)n2)cn1` [BKM120], the “BBB crossing as known from literature” value was “known to cross the BBB”.
As for `CC(C)(C)c1nc(-c2cccc(NS(=O)(=O)c3c(F)cccc3F)c2F)c(-c2ccnc(N)n2)s1` [Dabrafenib], the “BBB penetration as known from literature” value is reported as “limited BBB penetration”.
In the case of TFFYGGSRGKRNNFKTEEY [Angiopep-2], the BBB organoid permeability result in data set [1] is given as “High”. Under “in vivo”, the “BBB crossing as known from literature” value was “known to cross the BBB via receptor mediated transcytosis” and the “BBB penetration in vivo” value is “Yes[6],[29]”.
On to ZAGYLLGKINLKALAALAKKIL [Transportan 10], for which the BBB organoid permeability entry in data set [1] (setting [2]) is on record as “High”.
For the compound ZHARIKPTFRRLKWKYKGKFW [L-2], the BBB organoid permeability result in data set [1] is “High”.
Regarding ZKGTYKKKLMRIPLKGT [SVM3], the BBB organoid permeability entry in data set [1] is listed as “High”.
Take ZLRRERQSRLRRERQSR [DPV15]: the BBB organoid permeability result in data set [1] is listed as “Very high”. The “BBB penetration in vivo” value (in vivo) is “Yes [6]”.
Regarding ZLYKKGPAKKGRPPLRGWFH [SVM4], the BBB organoid permeability entry in data set [1] is given as “High”.
Take ZPLSSIFSRIGDP [PreS2-TLM]: the BBB organoid permeability result in data set [1] (setting [2]) is “High”.
With ZPPRPPRPPR [(PPR)3], in data set [1], the BBB organoid permeability entry is recorded as “High”.
Take ZPPRPPRPPRPPRPPR [(PPR)5]: the BBB organoid permeability result in data set [1] is “High”.
For the compound ZRGGRLSYSRRRFSTSTGR [SynB1], the “BBB penetration in vivo” value (in vivo) is “Yes [31]”.
Consider ZRKKRRQRRR [HIV-1 Tat], for which the “BBB penetration in vivo” value was “Yes [31]”. Moreover, the BBB organoid permeability entry in data set [1] (setting [2]) was “High”.
With ZRQIKIWFQNRRMKWKK [Penetratin], in data set [1], the BBB organoid permeability entry is reported as “High”. In addition, where the note is “in vivo”, the “BBB penetration in vivo” value is “Yes [31]”.
Consider ZRQVTIWFQNRRVKEKK [HoxA-13], for which, in data set [1], the BBB organoid permeability result is “Very high”. The “BBB penetration in vivo” value (in vivo) is “Yes [6]”.
Take ZRRRRRRRR [Polyarginine]: the BBB organoid permeability result in data set [1] is reported as “High”.
Consider ZSQIKIWFQNKRAKIKK [Engrailed-2], for which, in data set [1], the BBB organoid permeability entry is on record as “Very high”.
For ZVELPPPVELPPPVELPPP [SAP(E)], the BBB organoid permeability result in data set [1] is listed as “High”.
Regarding ZVKRGLKLRHVRPRVTRMDV [DPV1047], the BBB organoid permeability result in data set [1] is given as “High”.
For ZVPALR [Bip(1)], the BBB organoid permeability entry in data set [1] is reported as “Very high”. Also, where the note is “in vivo”, the “BBB penetration in vivo” value is “Yes [6]”.
Turning to ZVRLPPPVRLPPPVRLPPP [SAP], the BBB organoid permeability result in data set [1] is “High”.
Regarding ZVSALK [Bip(2)], the BBB organoid permeability entry in data set [1] was “Very high”. Besides, for the setting “in vivo”, the “BBB penetration in vivo” value was “Yes [6]”.
